Test results from ChEMBL document CHEMBL4138123, “Design, synthesis and biological evaluation of novel pyrazolochalcones as potential modulators of PI3K/Akt/mTOR pathway and inducers of apoptosis in breast cancer cells” (Eur J Med Chem, 2017).

How the values were obtained:
Assay type in all cases: functional
[1] = tested on: MOLT-4; assay: Cytotoxicity against human MOLT4 cells assessed as growth inhibition after 48 hrs by sulforhodamine B assay; conditions: MOLT-4, 48 h
[2] = tested on: HOP-62; assay: Cytotoxicity against human HOP62 cells assessed as growth inhibition after 48 hrs by sulforhodamine B assay; conditions: HOP-62, 48 h
[3] = tested on: SF-268; assay: Cytotoxicity against human SF268 cells assessed as growth inhibition after 48 hrs by sulforhodamine B assay; conditions: SF-268, 48 h
[4] = tested on: LOX IMVI; assay: Cytotoxicity against human LOXIMVI cells assessed as growth inhibition after 48 hrs by sulforhodamine B assay
[5] = tested on: MDA-MB-435; assay: Cytotoxicity against human MDA-MB-435 cells assessed as growth inhibition after 48 hrs by sulforhodamine B assay; conditions: MDA-MB-435, 48 h
[6] = tested on: SK-MEL-28; assay: Cytotoxicity against human SK-MEL-28 cells assessed as growth inhibition after 48 hrs by sulforhodamine B assay; conditions: SK-MEL-28, 48 h
[7] = tested on: 786-0; assay: Cytotoxicity against human 786-0 cells assessed as growth inhibition after 48 hrs by sulforhodamine B assay; conditions: 786-0, 48 h
[8] = tested on: A498; assay: Cytotoxicity against human A498 cells assessed as growth inhibition after 48 hrs by sulforhodamine B assay; conditions: A498, 48 h
[9] = tested on: DU-145; assay: Cytotoxicity against human DU145 cells assessed as growth inhibition after 48 hrs by sulforhodamine B assay; conditions: DU-145, 48 h
[10] = tested on: T47D; assay: Cytotoxicity against human T47D cells assessed as growth inhibition after 48 hrs by sulforhodamine B assay
[11] = tested on: A498; assay: Cytotoxicity against human A498 cells assessed as cell growth at 0.01 uM after 48 hrs by sulforhodamine B assay relative to control; conditions: A498, 48 h, read-out: Activity
[12] = tested on: OVCAR-4; assay: Cytotoxicity against human OVCAR4 cells assessed as cell growth at 0.01 uM after 48 hrs by sulforhodamine B assay relative to control; conditions: OVCAR-4, 48 h, read-out: Activity
[13] = tested on: M14; assay: Cytotoxicity against human M14 cells assessed as cell growth at 0.01 uM after 48 hrs by sulforhodamine B assay relative to control; conditions: M14, 48 h, read-out: Activity
[14] = tested on: NCI-H322M; assay: Cytotoxicity against human NCI-H322M cells assessed as cell growth at 0.01 uM after 48 hrs by sulforhodamine B assay relative to control; conditions: read-out: Activity
[15] = tested on: MOLT-4; assay: Cytotoxicity against human MOLT4 cells assessed as cell growth at 0.01 uM after 48 hrs by sulforhodamine B assay relative to control; conditions: MOLT-4, 48 h, read-out: Activity
[16] = tested on: MOLT-4; assay: Cytotoxicity against human MOLT4 cells assessed as cell growth at 0.1 uM after 48 hrs by sulforhodamine B assay relative to control; conditions: MOLT-4, 48 h, read-out: Activity
[17] = tested on: UACC-257; assay: Cytotoxicity against human UACC257 cells assessed as cell growth at 0.1 uM after 48 hrs by sulforhodamine B assay relative to control; conditions: UACC-257, 48 h, read-out: Activity
[18] = tested on: OVCAR-5; assay: Cytotoxicity against human OVCAR5 cells assessed as cell growth at 0.1 uM after 48 hrs by sulforhodamine B assay relative to control; conditions: OVCAR-5, 48 h, read-out: Activity
[19] = tested on: 786-0; assay: Cytotoxicity against human 786-0 cells assessed as cell growth at 0.1 uM after 48 hrs by sulforhodamine B assay relative to control; conditions: 786-0, 48 h, read-out: Activity
[20] = tested on: RXF 393; assay: Cytotoxicity against human RXF393 cells assessed as cell growth at 0.1 uM after 48 hrs by sulforhodamine B assay relative to control; conditions: RXF 393, 48 h, read-out: Activity
[21] = tested on: BT-549; assay: Cytotoxicity against human BT549 cells assessed as cell growth at 0.1 uM after 48 hrs by sulforhodamine B assay relative to control; conditions: BT-549, 48 h, read-out: Activity
[22] = tested on: T47D; assay: Cytotoxicity against human T47D cells assessed as cell growth at 0.1 uM after 48 hrs by sulforhodamine B assay relative to control; conditions: read-out: Activity
[23] = tested on: MDA-MB-468; assay: Cytotoxicity against human MDA-MB-468 cells assessed as cell growth at 0.1 uM after 48 hrs by sulforhodamine B assay relative to control; conditions: MDA-MB-468, 48 h, read-out: Activity
[24] = tested on: SF-268; assay: Cytotoxicity against human SF268 cells assessed as cell growth at 1 uM after 48 hrs by sulforhodamine B assay relative to control; conditions: SF-268, 48 h, read-out: Activity
[25] = tested on: Malme-3M; assay: Cytotoxicity against human MALME-3M cells assessed as cell growth at 1 uM after 48 hrs by sulforhodamine B assay relative to control; conditions: read-out: Activity
[26] = tested on: MDA-MB-435; assay: Cytotoxicity against human MDA-MB-435 cells assessed as cell growth at 1 uM after 48 hrs by sulforhodamine B assay relative to control; conditions: MDA-MB-435, 48 h, read-out: Activity
[27] = tested on: OVCAR-5; assay: Cytotoxicity against human OVCAR5 cells assessed as cell growth at 1 uM after 48 hrs by sulforhodamine B assay relative to control; conditions: OVCAR-5, 48 h, read-out: Activity
[28] = tested on: OVCAR-8; assay: Cytotoxicity against human OVCAR8 cells assessed as cell growth at 1 uM after 48 hrs by sulforhodamine B assay relative to control; conditions: OVCAR-8, 48 h, read-out: Activity
[29] = tested on: K562; assay: Cytotoxicity against human K562 cells assessed as cell growth at 10 uM after 48 hrs by sulforhodamine B assay relative to control; conditions: K562, 48 h, read-out: Activity
[30] = tested on: HCC 2998; assay: Cytotoxicity against human HCC2998 cells assessed as cell growth at 10 uM after 48 hrs by sulforhodamine B assay relative to control; conditions: HCC 2998, 48 h, read-out: Activity
[31] = tested on: SF-268; assay: Cytotoxicity against human SF268 cells assessed as cell growth at 10 uM after 48 hrs by sulforhodamine B assay relative to control; conditions: SF-268, 48 h, read-out: Activity
[32] = tested on: PC-3; assay: Cytotoxicity against human PC3 cells assessed as cell growth at 10 uM after 48 hrs by sulforhodamine B assay relative to control; conditions: PC-3, 48 h, read-out: Activity
[33] = tested on: KM12; assay: Cytotoxicity against human KM12 cells assessed as cell growth at 100 uM after 48 hrs by sulforhodamine B assay relative to control; conditions: KM12, 48 h, read-out: Activity
[34] = tested on: SNB-19; assay: Cytotoxicity against human SNB19 cells assessed as cell growth at 100 uM after 48 hrs by sulforhodamine B assay relative to control; conditions: SNB-19, 48 h, read-out: Activity
[35] = tested on: SK-MEL-28; assay: Cytotoxicity against human SK-MEL-28 cells assessed as cell growth at 100 uM after 48 hrs by sulforhodamine B assay relative to control; conditions: SK-MEL-28, 48 h, read-out: Activity
[36] = read-out: LC50 (the source's name)

SMILES: COc1ccc(C(=O)/C=C/c2cc(-c3ccc(OC)c(OC)c3)n[nH]2)cc1OC
- GI50 [1]: 2.2 µM
- TGI [1]: > 100 µM
- CC50 [1, 36]: > 100 µM
- GI50 [2]: 1.73 µM
- TGI [2]: 5.6 µM
- GI50 [3]: 2.09 µM
- TGI [3]: 9.82 µM
- CC50 [3, 36]: > 100 µM
- GI50 [4]: 1.29 µM
- TGI [4]: 2.7 µM
- GI50 [5]: 1.72 µM
- GI50 [6]: 1.82 µM
- TGI [6]: 4.82 µM
- GI50 [7]: 1.81 µM
- TGI [7]: 5.14 µM
- GI50 [8]: 1.27 µM
- TGI [8]: 3.2 µM
- GI50 [9]: 1.64 µM
- TGI [9]: 4.8 µM
- CC50 [9, 36]: 17.4 µM
- GI50 [10]: 1.36 µM
- TGI [10]: 6.65 µM
- growth at 0.01 µM [11]: 82%
- growth at 0.01 µM [12]: 106%
- growth at 0.01 µM [13]: 89%
- growth at 0.01 µM [14]: 104%
- growth at 0.01 µM [15]: 103%
- growth at 0.1 µM [16]: 101%
- growth at 0.1 µM [17]: 94%
- growth at 0.1 µM [18]: 94%
- growth at 0.1 µM [19]: 96%
- growth at 0.1 µM [20]: 84%
- growth at 0.1 µM [21]: 89%
- growth at 0.1 µM [22]: 86%
- growth at 0.1 µM [23]: 80%
- growth at 1 µM [24]: 74%
- growth at 1 µM [25]: 104%
- growth at 1 µM [26]: 87%
- growth at 1 µM [27]: 76%
- growth at 1 µM [28]: 80%
- growth at 10 µM [29]: 3%
- growth at 10 µM [30]: -94%
- growth at 10 µM [31]: -1%
- growth at 10 µM [32]: 5%
- growth at 100 µM [33]: -74%
- growth at 100 µM [34]: -36%
- growth at 100 µM [35]: -32%
